Assay results published in patent publication US12390498B2, “Treatment of clostridium difficile infection” (Vedanta Biosciences, Inc., priority 2016, dated 2025).

Columns and labels:
[1] = system: Clostridium difficile infection (CDI); conditions: cited from earlier work
[2] = Short-chain fatty acid producing abilities of Composition F strains

Compound: CCc1c(Cl)c(O)c(Cl)c(O)c1C(=O)O[C@H]1[C@H](O)[C@H](OC)[C@H](OC/C2=C\C=C\C[C@H](O)/C(C)=C/[C@H](CC)[C@@H](O[C@@H]3OC(C)(C)[C@@H](OC(=O)C(C)C)[C@H](O)[C@@H]3O)/C(C)=C/C(C)=C/C[C@@H]([C@@H](C)O)OC2=O)O[C@@H]1C [fidaxomicin]
- treated patients experiencing CDI relapse ([1]; CDI patients): 14%
- preventing recurrent CDI ([1]; comparison with vancomycin): superior to vancomycin

Compound: Bacteroides cellulosilyticus
- SCFAs (short chain fatty acids produced) [2]: A, S
